Results: patent publication US10745356B2, “Compositions and methods for treating tuberculosis” (priority 2015, dated 2020)
In brackets after ≈: the same amount, converted by molar mass.

The compounds below were run on M. tuberculosis strains (assay: Minimum Inhibitory Concentration (MIC) against M. tuberculosis strains, resazurin microtiter plate assay). Settings: Mycobacterium tuberculosis.
Assay type: cell-based, Mycobacterium tuberculosis

Compared with `Cc1cc2nccc(-c3ccccc3)c2c(C)c1-c1ccn(C)n1` [Compound 75], `Cc1cc2nccc(-c3ccccc3)c2c(C)c1-c1ccnn1C` [Compound 76] is lower in MIC90: greater than 125 µM for the first, 47 µM (≈ 14.7 µg/mL) for the second.

First: Cc1cc2nccc(-c3ccccc3)c2c(C)c1-c1cnn(C)c1 [Compound 77]
Second: CNC(=O)c1cc(-c2ccccc2F)c2c(C)c(-c3ccoc3)c(C)cc2n1 [Compound 80]
The MIC90 of the first is 78-fold higher: 47 µM (≈ 14.7 µg/mL) for the first, 0.6 µM (≈ 0.225 µg/mL) for the second.

First: CNC(=O)c1cc(-c2ccccc2F)c2c(C)c(C3=CCNCC3)c(C)cc2n1 [Compound 86]
Second: CNC(=O)c1cc(-c2ccccc2F)c2c(C)c(C3=CCC(CO)CC3)c(C)cc2n1 (centres unmarked) [Compound 91]
The MIC90 of the first is 33-fold higher: 20 µM (≈ 7.79 µg/mL) for the first, 0.6 µM (≈ 0.251 µg/mL) for the second.

Same assay, conditions: Mycobacterium tuberculosis, Table 4A, C6 SAR with amide; Middlebrook 7H9, 37° C. six days, resazurin fluorescence after 48 hours; read-out: MIC90

Compared with `CNC(=O)c1cc(-c2ccccc2F)c2c(C)c(-c3ccc(CN4CCOCC4)cc3)c(C)cc2n1` [Compound 78], `CNC(=O)c1cc(-c2ccccc2F)c2c(C)c(C3=CCC(CN4CCOCC4)CC3)c(C)cc2n1` (centres unmarked) [Compound 92] is 2.1-fold higher in MIC90: 0.6 µM (≈ 0.29 µg/mL) for the first, 1.25 µM (≈ 0.61 µg/mL) for the second.

Compared with `CNC(=O)c1cc(-c2ccccc2F)c2c(C)c(-c3ccnc(C(F)(F)F)c3)c(C)cc2n1` [Compound 79], `CNC(=O)c1cc(-c2ccccc2F)c2c(C)c(-c3ccnc(N)c3)c(C)cc2n1` [Compound 83] is 1.5-fold higher in MIC90: 5 µM (≈ 2.27 µg/mL) for the first, 7.5 µM (≈ 3 µg/mL) for the second.

`CNC(=O)c1cc(-c2ccccc2F)c2c(C)c(-c3cccs3)c(C)cc2n1` [Compound 81] and `CNC(=O)c1cc(-c2ccccc2F)c2c(C)c(-c3cccnc3)c(C)cc2n1` [Compound 85] are the same in MIC90: 3 µM (≈ 1.17 µg/mL) for the first, 3 µM (≈ 1.16 µg/mL) for the second.

First: CNC(=O)c1cc(-c2ccccc2F)c2c(C)c(-c3cnc(C(=O)O)nc3)c(C)cc2n1 [Compound 82]
Second: CNC(=O)c1cc(-c2ccccc2F)c2c(C)c(-c3ccnc(C)c3)c(C)cc2n1 [Compound 84]
The MIC90 of the first is 13-fold higher: 80 µM (≈ 34.4 µg/mL) for the first, 6 µM (≈ 2.4 µg/mL) for the second.

Going from `CNC(=O)c1cc(-c2ccccc2F)c2c(C)c(C3=CCC(C(=O)O)CC3)c(C)cc2n1` (centres unmarked) [Compound 87] to `CNC(=O)c1cc(-c2ccccc2F)c2c(C)c(C3=CCC(C(=O)N4CCOCC4)CC3)c(C)cc2n1` (centres unmarked) [Compound 89], the MIC90 falls from 2.5 µM (≈ 1.08 µg/mL) to 1.25 µM (≈ 0.627 µg/mL) (2-fold).

Going from `CNC(=O)c1cc(-c2ccccc2F)c2c(C)c(C3=CCN(S(=O)(=O)N4CCOCC4)CC3)c(C)cc2n1` [Compound 88] to `CNC(=O)c1cc(-c2ccccc2F)c2c(C)c(C3=CCN(C(=O)N4CCOCC4)CC3)c(C)cc2n1` [Compound 90], the MIC90 falls from 10 µM (≈ 5.39 µg/mL) to 5 µM (≈ 2.51 µg/mL) (2-fold).

Same assay, conditions: Mycobacterium tuberculosis, Table 5; Middlebrook 7H9, 37° C. six days, resazurin fluorescence after 48 hours; read-out: MIC90

Compared with `Cc1cc2nccc(-c3cccnc3)c2c(C)c1-c1ccc(CN2CCOCC2)cc1` [Compound 93], `CNC(=O)c1cc(-c2ccccc2)c2c(C)c(-c3ccncc3)c(C)cc2n1` [Compound 95] is 5.3-fold lower in MIC90: 1.6 µM (≈ 0.655 µg/mL) for the first, 0.3 µM (≈ 0.11 µg/mL) for the second.

Compared with `Cc1cc2nc(C(=O)NS(C)(=O)=O)cc(-c3ccccc3Cl)c2c(C)c1-c1ccncc1` [Compound 94], `Cc1cc2nc(C(=O)NCCO)cc(-c3ccccc3)c2c(C)c1-c1ccncc1` [Compound 96] is 17-fold lower in MIC90: 5 µM (≈ 2.33 µg/mL) for the first, 0.3 µM (≈ 0.119 µg/mL) for the second.

First: Cc1cc2nc(C(=O)N[C@H]3CCC[C@@H]3O)cc(-c3ccccc3F)c2c(C)c1-c1ccncc1 [Compound 97]
Second: Cc1cc2nc(C(=O)N[C@@H]3CCC[C@H]3O)cc(-c3ccccc3F)c2c(C)c1-c1ccncc1 [Compound 98]
The MIC90 of the first is lower: less than 0.16 µM for the first, 0.6 µM (≈ 0.273 µg/mL) for the second.

Going from `CNC(=O)c1cc(C2=CCOCC2)c2c(C)c(-c3ccncc3)c(C)cc2n1` [Compound 99] to `CNC(=O)c1cc(C2=CCCCC2)c2c(C)c(-c3ccncc3)c(C)cc2n1` [Compound 102], the MIC90 falls from 12.5 µM (≈ 4.67 µg/mL) to 3 µM (≈ 1.11 µg/mL) (4.2-fold).

`CNC(=O)c1cc(N2CCN(C)CC2)c2c(C)c(-c3ccncc3)c(C)cc2n1` [Compound 100] and `CNC(=O)c1cc(N2CCNCC2)c2c(C)c(-c3ccncc3)c(C)cc2n1` [Compound 101] cannot be ordered by MIC90: greater than 50 µM for the first, greater than 50 µM for the second.

Same assay, conditions: Mycobacterium tuberculosis, Table 6; Middlebrook 7H9, 37° C. six days, resazurin fluorescence after 48 hours; read-out: MIC90

First: Cc1cc2nc(C(=O)N3CCC(N(C)C)C3)cc(-c3ccccc3Cl)c2c(C)c1-c1ccc(CN2CCOCC2)cc1 (centres unmarked) [Compound 103]
Second: Cc1cc2nc(C(=O)N[C@@H]3CN(C)C[C@@H]3F)cc(-c3ccnn3C)c2c(C)c1-c1ccncc1 [Compound 106]
The MIC90 of the first is 2-fold lower: 0.8 µM (≈ 0.467 µg/mL) for the first, 1.6 µM (≈ 0.734 µg/mL) for the second.

Going from `CNC(=O)c1cc(-c2ccnn2C)c2c(C)c(-c3ccncc3)c(C)cc2n1` [Compound 104] to `Cc1cc2nc(C(=O)NCCO)cc(-c3ccnn3C)c2c(C)c1-c1ccncc1` [Compound 107], the MIC90 falls from 6 µM (≈ 2.23 µg/mL) to 1.6 µM (≈ 0.642 µg/mL) (3.8-fold).
